Results published in patent US20260345619A1 (Principia Biopharma Inc., priority 2023, published 2026).

Test: Asthma Quality of Life Questionnaire with Standardized Activities (AQLQ(S))
Assay type: in vivo, human
From the text: The AQLQ(S) is a self-administered patient reported outcome to measure the functional impairments that are most troublesome to adolescents and adults ≥12 years of age as a result of their asthma.
Asthma Quality of Life Questionnaire with Standardized Activities (AQLQ(S)) self-administered (≥12 years)
The AQLQ(S) was designed as a self-administered patient reported outcome to measure the functional impairments that are most troublesome to adolescents and adults ≥12 years of age as a result of their asthma. The instrument is comprised of 32 items, each rated on a 7-point Likert scales from 1 to 7. The AQLQ(S) has 4 domains. The domains and the number of items in each domain are as follows: • Symptoms (12 items) • Activity limitation (11 items) • Emotional function (5 items) • Environmental stimuli (4 items)
A global score is calculated ranging from 1 to 7 and a score by domain. Higher scores indicate better quality of life. […] Patients were to complete the questionnaire in an electronic diary during on-site visits.
Secondary endpoints included pre-bronchodilator FEV1 change from baseline at EOT, ACQ-5 score change from baseline, and AQLQ score change from baseline. Other secondary and exploratory endpoints are described in Table 2.

[1] = 400 mg TID, observed/LOCF imputed, n=53, mITT

SMILES: CC(C)(C=C(C#N)C(=O)N1CCC[C@@H](n2nc(-c3ccc(Oc4ccccc4)cc3F)c3c(N)ncnc32)C1)N1CCN(C2COC2)CC1 (mixture of isomers) [rilzabrutinib, (R)-2-[3-[4-amino-3-(2-fluoro-4-phenoxy-phenyl)pyrazolo[3,4-d]pyrimidin-1-yl]piperidine-1-carbonyl]-4-methyl-4-[4-(oxetan-3-yl)piperazin-1-yl]pent-2-enenitrile]
- AQLQ global score change from baseline at Week 12, LS Mean Diff vs. placebo (400 mg TID, mITT, all others than low EOS and low FeNO): 0.35
- AQLQ global score change from baseline at Week 12, LS Mean Diff vs. placebo (400 mg TID, mITT, atopic medical conditions: no): 0.37
- AQLQ global score change from baseline at Week 12, LS Mean Diff vs. placebo (400 mg TID, mITT, atopic medical conditions: yes): 0.13
- AQLQ global score change from baseline at Week 12, LS Mean Diff vs. placebo (400 mg TID, mITT, background ICS dose high): 0.26
- AQLQ global score change from baseline at Week 12, LS Mean Diff vs. placebo (400 mg TID, mITT, background ICS dose medium): 0.31
- AQLQ global score change from baseline at Week 12, LS Mean Diff vs. placebo (400 mg TID, mITT, baseline ACQ-5 score >2): 0.38
- AQLQ global score change from baseline at Week 12, LS Mean Diff vs. placebo (400 mg TID, mITT, baseline ACQ-5 score ≤2): 0.29
- AQLQ global score change from baseline at Week 12, LS Mean Diff vs. placebo (400 mg TID, mITT, baseline BMI <25 kg/m^2): 0.56
- AQLQ global score change from baseline at Week 12, LS Mean Diff vs. placebo (400 mg TID, mITT, baseline BMI ≥25-<30 kg/m^2): 0.47
- AQLQ global score change from baseline at Week 12, LS Mean Diff vs. placebo (400 mg TID, mITT, baseline BMI ≥30 kg/m^2): −0.01
- AQLQ global score change from baseline at Week 12, LS Mean Diff vs. placebo (400 mg TID, mITT, baseline FEV1 reversibility <12%): 0.12
- AQLQ global score change from baseline at Week 12, LS Mean Diff vs. placebo (400 mg TID, mITT, baseline FEV1 reversibility ≥12%): 0.32
- AQLQ global score change from baseline at Week 12, LS Mean Diff vs. placebo (400 mg TID, mITT, baseline FeNO <25 ppb): 0.15
- AQLQ global score change from baseline at Week 12, LS Mean Diff vs. placebo (400 mg TID, mITT, baseline FeNO <35 ppb): 0.18
- AQLQ global score change from baseline at Week 12, LS Mean Diff vs. placebo (400 mg TID, mITT, baseline FeNO ≥25 ppb): 0.44
- AQLQ global score change from baseline at Week 12, LS Mean Diff vs. placebo (400 mg TID, mITT, baseline FeNO ≥35 ppb): 0.45
- AQLQ global score change from baseline at Week 12, LS Mean Diff vs. placebo (400 mg TID, mITT, baseline IgA <median 2190 mg/L): 0.50
- AQLQ global score change from baseline at Week 12, LS Mean Diff vs. placebo (400 mg TID, mITT, baseline IgA ≥median 2190 mg/L): 0.08
- AQLQ global score change from baseline at Week 12, LS Mean Diff vs. placebo (400 mg TID, mITT, baseline IgE <100 IU/mL): 0.46
- AQLQ global score change from baseline at Week 12, LS Mean Diff vs. placebo (400 mg TID, mITT, baseline IgE <median 121.85 IU/mL): 0.60
- AQLQ global score change from baseline at Week 12, LS Mean Diff vs. placebo (400 mg TID, mITT, baseline IgE ≥100 IU/mL): 0.16
- AQLQ global score change from baseline at Week 12, LS Mean Diff vs. placebo (400 mg TID, mITT, baseline IgE ≥median 121.85 IU/mL): −0.02
- AQLQ global score change from baseline at Week 12, LS Mean Diff vs. placebo (400 mg TID, mITT, baseline blood eosinophil level 1 <0.15 10^9/L): 0.07
- AQLQ global score change from baseline at Week 12, LS Mean Diff vs. placebo (400 mg TID, mITT, baseline blood eosinophil level 1 ≥0.15-<0.3 10^9/L): 0.32
- AQLQ global score change from baseline at Week 12, LS Mean Diff vs. placebo (400 mg TID, mITT, baseline blood eosinophil level 1 ≥0.3 10^9/L): 0.70
- AQLQ global score change from baseline at Week 12, LS Mean Diff vs. placebo (400 mg TID, mITT, baseline blood eosinophil level 2 <0.3 10^9/L): 0.17
- AQLQ global score change from baseline at Week 12, LS Mean Diff vs. placebo (400 mg TID, mITT, baseline blood eosinophil level 2 ≥0.3 10^9/L): 0.70
- AQLQ global score change from baseline at Week 12, LS Mean Diff vs. placebo (400 mg TID, mITT, baseline percent predicted FEV1 <77%): 0.42
- AQLQ global score change from baseline at Week 12, LS Mean Diff vs. placebo (400 mg TID, mITT, baseline percent predicted FEV1 <80%): 0.35
- AQLQ global score change from baseline at Week 12, LS Mean Diff vs. placebo (400 mg TID, mITT, baseline percent predicted FEV1 ≥77%): 0.16
- AQLQ global score change from baseline at Week 12, LS Mean Diff vs. placebo (400 mg TID, mITT, baseline percent predicted FEV1 ≥80%): 0.27
- AQLQ global score change from baseline at Week 12, LS Mean Diff vs. placebo (400 mg TID, mITT, baseline pre-bronchodilator FEV1 <2.1955 L): 0.28
- AQLQ global score change from baseline at Week 12, LS Mean Diff vs. placebo (400 mg TID, mITT, baseline pre-bronchodilator FEV1 ≥2.1955 L): 0.27
- AQLQ global score change from baseline at Week 12, LS Mean Diff vs. placebo (400 mg TID, mITT, baseline weight <60 kg): −0.08
- AQLQ global score change from baseline at Week 12, LS Mean Diff vs. placebo (400 mg TID, mITT, baseline weight ≥60-<90 kg): 0.41
- AQLQ global score change from baseline at Week 12, LS Mean Diff vs. placebo (400 mg TID, mITT, baseline weight ≥90 kg): 0.17
- AQLQ global score change from baseline at Week 12, LS Mean Diff vs. placebo (400 mg TID, mITT, female): 0.32
- AQLQ global score change from baseline at Week 12, LS Mean Diff vs. placebo (400 mg TID, mITT, former smokers): −0.02
- AQLQ global score change from baseline at Week 12, LS Mean Diff vs. placebo (400 mg TID, mITT, low EOS (<0.15) and low FeNO (<25)): 0.10
- AQLQ global score change from baseline at Week 12, LS Mean Diff vs. placebo (400 mg TID, mITT, male): 0.15
- AQLQ global score change from baseline at Week 12, LS Mean Diff vs. placebo (400 mg TID, mITT, never smokers): 0.34
- AQLQ global score non-responders at Week 12, number [1]: 24
- AQLQ global score non-responders at Week 12, percentage [1]: (45.3) (22/2)
- participants with AQLQ improvement of at least 0.5 from baseline at Week 12 (400 mg TID, placebo 40.3%, p=0.0456): 54.7%
- AQLQ(S) Activity limitation score, Mean (Week 4, 400 mg BID, mITT): 5.48
- AQLQ(S) Activity limitation score, Median (Week 4, 400 mg BID, mITT): 5.55
- AQLQ(S) Activity limitation score, change from baseline, LS Mean (Week 4, 400 mg BID, mITT): 0.72
- AQLQ(S) Activity limitation score, change from baseline, Mean (Week 4, 400 mg BID, mITT): 0.73
- AQLQ(S) Activity limitation score, change from baseline, Median (Week 4, 400 mg BID, mITT): 0.55
- AQLQ(S) Emotional function score, Mean (Week 4, 400 mg BID, mITT): 5.85
- AQLQ(S) Emotional function score, Median (Week 4, 400 mg BID, mITT): 6.40
- AQLQ(S) Emotional function score, change from baseline, LS Mean (Week 4, 400 mg BID, mITT): 0.77
- AQLQ(S) Emotional function score, change from baseline, Mean (Week 4, 400 mg BID, mITT): 0.61
- AQLQ(S) Emotional function score, change from baseline, Median (Week 4, 400 mg BID, mITT): 0.40
- AQLQ(S) Environmental stimuli score, Mean (Week 4, 400 mg BID, mITT): 5.13
- AQLQ(S) Environmental stimuli score, change from baseline, LS Mean (Week 4, 400 mg BID, mITT): 0.60
- AQLQ(S) Environmental stimuli score, change from baseline, Mean (Week 4, 400 mg BID, mITT): 0.67
- AQLQ(S) Environmental stimuli score, change from baseline, Median (Week 4, 400 mg BID, mITT): 0.50
- AQLQ(S) Global score, Mean (Week 4, 400 mg BID, mITT): 5.63
- AQLQ(S) Global score, Median (Week 4, 400 mg BID, mITT): 5.69
- AQLQ(S) Global score, change from baseline, LS Mean (Week 4, 400 mg BID, mITT): 0.80
- AQLQ(S) Global score, change from baseline, Mean (Week 4, 400 mg BID, mITT): 0.73
- AQLQ(S) Global score, change from baseline, Median (Week 4, 400 mg BID, mITT): 0.69
- AQLQ(S) Symptoms score, Mean (Week 4, 400 mg BID, mITT): 5.83
- AQLQ(S) Symptoms score, Median (Week 4, 400 mg BID, mITT): 6.00
- AQLQ(S) Symptoms score, change from baseline, LS Mean (Week 4, 400 mg BID, mITT): 0.92
- AQLQ(S) Symptoms score, change from baseline, Mean (Week 4, 400 mg BID, mITT): 0.80
- AQLQ(S) Symptoms score, change from baseline, Median (Week 4, 400 mg BID, mITT): 0.75
- AQLQ(S) Environmental stimuli score, change from baseline, LS Mean Diff vs. placebo (Week 4, 400 mg BID, mITT, 95% CI 0.02, 1.49): 0.76
- AQLQ(S) Activity limitation score, change from baseline, LS Mean Diff vs. placebo (Week 4, 400 mg BID, mITT, 95% CI 0.26, 1.24): 0.75
- AQLQ(S) Emotional function score, change from baseline, LS Mean Diff vs. placebo (Week 4, 400 mg BID, mITT, 95% CI 0.30, 1.74): 1.02
- AQLQ(S) Global score, change from baseline, LS Mean Diff vs. placebo (Week 4, 400 mg BID, mITT, 95% CI 0.34, 1.34): 0.84
- AQLQ(S) Symptoms score, change from baseline, LS Mean Diff vs. placebo (Week 4, 400 mg BID, mITT, 95% CI 0.41, 1.32): 0.86
